How the values were obtained:
[1] = biological target: T1, human Siglec-2/CD22 protein (Homo sapiens, UniProt P20273); test: SPR binding affinity to human CD22; details: steady-state analysis
T1 construct: purchased Acro Biosystems SI2-H82E3
T1 sequence (P20273 20-847): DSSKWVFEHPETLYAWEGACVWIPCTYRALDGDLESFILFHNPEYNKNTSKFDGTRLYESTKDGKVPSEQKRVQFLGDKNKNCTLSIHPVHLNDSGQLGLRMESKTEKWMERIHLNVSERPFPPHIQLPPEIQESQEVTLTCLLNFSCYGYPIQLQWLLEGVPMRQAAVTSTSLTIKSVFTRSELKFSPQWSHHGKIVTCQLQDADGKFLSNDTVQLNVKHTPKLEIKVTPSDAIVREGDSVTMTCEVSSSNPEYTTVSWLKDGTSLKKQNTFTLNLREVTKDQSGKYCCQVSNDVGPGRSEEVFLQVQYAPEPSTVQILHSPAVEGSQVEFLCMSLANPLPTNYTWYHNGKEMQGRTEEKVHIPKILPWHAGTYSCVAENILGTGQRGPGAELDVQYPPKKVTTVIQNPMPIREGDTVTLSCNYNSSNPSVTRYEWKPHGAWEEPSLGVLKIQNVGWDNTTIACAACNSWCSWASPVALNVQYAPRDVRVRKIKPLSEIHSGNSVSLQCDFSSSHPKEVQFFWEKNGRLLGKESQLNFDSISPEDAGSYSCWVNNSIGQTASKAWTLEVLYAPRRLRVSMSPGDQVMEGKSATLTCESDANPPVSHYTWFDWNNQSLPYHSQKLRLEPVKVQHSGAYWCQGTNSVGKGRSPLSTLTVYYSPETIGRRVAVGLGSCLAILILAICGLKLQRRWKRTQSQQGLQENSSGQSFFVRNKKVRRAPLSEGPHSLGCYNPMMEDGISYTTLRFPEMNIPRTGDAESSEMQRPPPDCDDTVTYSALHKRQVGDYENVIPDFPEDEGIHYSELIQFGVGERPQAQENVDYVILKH
Procedure: (§1) Prior to immobilization, CD22 proteins were treated with SialoExo (Genovis, Cat #G1-SM1-020) for 4 hours at 37° C. to remove native sialic acid residues.
(§2) Capture of biotinylated CD22 constructs was performed using a Cytiva SA chip (BR100398) on a Biacore 8K instrument.
(§3) Binding experiments of Siglec-ligand conjugated proteins or Siglec ligand compounds were performed on the surfaces prepared above in 10 mM HEPES, 150 mM NaCl, 0.05% Tween-20, pH 7.5, 1% DMSO as the running buffer. […] The compounds were then allowed to dissociate from the surface for 120 seconds. […] Solvent correction was performed using 0.5, 1, 1.5, and 2% DMSO spike into running buffer without DMSO. […] Data was analyzed using steady-state analysis in Biacore Insight Evaluation Software, version 3.0 for Siglec ligand compounds.

[2] = biological target: T2, mouse Siglec-2-Fc-Avi (CD22) (Mus musculus, UniProt P35329); test: SPR binding affinity to mouse CD22; details: steady-state analysis
T2 construct: made in house
T2 sequence (P35329 22-708 limits assumed): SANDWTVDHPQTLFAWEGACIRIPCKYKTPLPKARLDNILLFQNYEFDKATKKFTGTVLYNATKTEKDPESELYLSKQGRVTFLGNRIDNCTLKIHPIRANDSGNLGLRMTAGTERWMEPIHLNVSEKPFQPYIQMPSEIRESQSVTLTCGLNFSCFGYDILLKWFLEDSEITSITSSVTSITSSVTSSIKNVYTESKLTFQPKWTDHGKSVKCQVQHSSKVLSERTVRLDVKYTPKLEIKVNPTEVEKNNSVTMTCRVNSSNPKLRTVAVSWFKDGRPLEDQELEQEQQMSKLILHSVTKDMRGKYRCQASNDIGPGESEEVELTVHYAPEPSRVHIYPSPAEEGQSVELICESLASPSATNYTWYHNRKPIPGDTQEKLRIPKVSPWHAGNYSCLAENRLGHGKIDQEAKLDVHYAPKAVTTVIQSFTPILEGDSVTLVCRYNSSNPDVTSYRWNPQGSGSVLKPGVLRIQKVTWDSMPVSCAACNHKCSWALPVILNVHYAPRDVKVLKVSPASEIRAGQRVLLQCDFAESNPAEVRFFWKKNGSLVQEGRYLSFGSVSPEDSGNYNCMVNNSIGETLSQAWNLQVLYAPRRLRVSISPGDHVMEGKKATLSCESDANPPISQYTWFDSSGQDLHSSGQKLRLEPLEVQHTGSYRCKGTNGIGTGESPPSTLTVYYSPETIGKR
Procedure: as §1, §2, §3

| Compound | Kd [1] | Kd [2] |
| --- | --- | --- |
| C#CCOCCCCCCS[C@]1(C(=O)O)C[C@H](O)[C@@H](NC(=O)CO)[C@H]([C@H](O)[C@H](O)CNC(=O)c2cccc(Oc3ccccc3)c2)O1 [Compound 255, (2S,4S,5R,6R)-6-((1R,2R)-1,2-dihydroxy-3-(3-phenoxybenzamido)propyl)-4-hydroxy-5-(2-hydroxyacetamido)-2-((6-(prop-2-yn-1-yloxy)hexyl)thio) tetrahydro-2H-pyran-2-carboxylic acid] | < 1000 nM | 1000 to 10000 nM |
| C#CCOCCCCCCO[C@]1(C(=O)O)C[C@H](O)[C@@H](NC(=O)CO)[C@H]([C@H](O)[C@H](O)CNC(=O)Cc2ccc(N3CCC(O)CC3)cc2)O1 [Compound 194, (2R,4S,5R,6R)-6-((1R,2R)-1,2-dihydroxy-3-(2-(4-(4-hydroxypiperidin-1-yl)phenyl)acetamido)propyl)-4-hydroxy-5-(2-hydroxyacetamido)-2-((6-(prop-2-yn-1-yloxy)hexyl)oxy)tetrahydro-2H-pyran-2-carboxylic acid] | 1000 to 10000 nM | 1000 to 10000 nM |
| C#CCOCCOCCNc1c(NCCCCCCO[C@]2(C(=O)O)C[C@H](O)[C@@H](NC(=O)CO)[C@H]([C@H](O)[C@H](O)CNC(=O)c3ccc(Cl)cc3)O2)c(=O)c1=O [Compound 254, (2R,4S,5R,6R)-6-((1R,2R)-3-(4-chlorobenzamido)-1,2-dihydroxypropyl)-2-((6-((3,4-dioxo-2-((2-(2-(prop-2-yn-1-yloxy)ethoxy)ethyl)amino)cyclobut-1-en-1-yl)amino)hexyl)oxy)-4-hydroxy-5-(2-hydroxyacetamido) tetrahydro-2H-pyran-2-carboxylic acid] | < 1000 nM | 1000 to 10000 nM |
| C#CCOCCOCCNc1c(NCCCCCCO[C@]2(C(=O)O)C[C@H](O)[C@@H](NC(=O)CO)[C@H]([C@H](O)[C@H](O)CNC(=O)c3ccccc3)O2)c(=O)c1=O [Compound 230, (2R,4S,5R,6R)-6-((1R,2R)-3-benzamido-1,2-dihydroxypropyl)-2-((6-((3,4-dioxo-2-((2-(2-(prop-2-yn-1-yloxy)ethoxy)ethyl)amino)cyclobut-1-en-1-yl)amino)hexyl)oxy)-4-hydroxy-5-(2-hydroxyacetamido)tetrahydro-2H-pyran-2-carboxylic acid] | 1000 to 10000 nM | 1000 to 10000 nM |
| C#CCCOc1ccc(CO[C@]2(C(=O)O)C[C@H](O)[C@@H](NC(=O)CO)[C@H]([C@H](O)[C@H](O)CNC(=O)Cc3ccc(N4CCOCC4)cc3)O2)cc1 [Compound 139, (2R,4S,5R,6R)-2-((4-(but-3-yn-1-yloxy)benzyl)oxy)-6-((1R,2R)-1,2-dihydroxy-3-(2-(4-morpholinophenyl)acetamido)propyl)-4-hydroxy-5-(2-hydroxyacetamido)tetrahydro-2H-pyran-2-carboxylic acid] | 1000 to 10000 nM | < 1000 nM |
| C#CCOP(=O)(O)OCCCCCO[C@]1(C(=O)O)C[C@H](O)[C@@H](NC(=O)CO)[C@H]([C@H](O)[C@H](O)CNC(=O)Cc2ccc(Cl)cc2)O1 [Compound 95, (2R,4S,5R,6R)-6-((1R,2R)-3-(2-(4-chlorophenyl)acetamido)-1,2-dihydroxypropyl)-4-hydroxy-2-((5-((hydroxy(prop-2-yn-1-yloxy)phosphoryl)oxy)pentyl)oxy)-5-(2-hydroxyacetamido)tetrahydro-2H-pyran-2-carboxylic acid] | < 1000 nM | 1000 to 10000 nM |

Further lines, results first:

| Kd [1] | Kd [2] | Compound |
| --- | --- | --- |
| < 1000 nM | 1000 to 10000 nM | CC(=O)NCCOCCOCCOCCOCCNc1c(NCCCCCCO[C@]2(C(=O)O)C[C@H](O)[C@@H](NC(C)=O)[C@H]([C@H](O)[C@H](O)CNC(=O)Cc3ccc(Cl)cc3)O2)c(=O)c1=O [Compound 248, (2R,4S,5R,6R)-5-acetamido-6-((1R,2R)-3-(2-(4-chlorophenyl)acetamido)-1,2-dihydroxypropyl)-2-((6-((3,4-dioxo-2-((2-oxo-6,9,12,15-tetraoxa-3-azaheptadecan-17-yl)amino)cyclobut-1-en-1-yl)amino)hexyl)oxy)-4-hydroxytetrahydro-2H-pyran-2-carboxylic acid] |
| 1000 to 10000 nM | > 10000 nM | CC(=O)NCCOCCOCCOCCOCCOC(=O)NCCCCCCO[C@]1(C(=O)O)C[C@H](O)[C@@H](NC(C)=O)[C@H]([C@H](O)[C@H](O)CNC(=O)c2cccc(Cl)c2)O1 [Compound 268, (2R,4S,5R,6R)-5-acetamido-6-((1R,2R)-3-(3-chlorobenzamido)-1,2-dihydroxypropyl)-2-((2,19-dioxo-6,9,12,15,18-pentaoxa-3,20-diazahexacosan-26-yl)oxy)-4-hydroxytetrahydro-2H-pyran-2-carboxylic acid] |
| < 1000 nM | 1000 to 10000 nM | CC(=O)NCCOCCOCCOCCOCCn1cc(COCCCCCCO[C@]2(C(=O)O)C[C@H](O)[C@@H](NC(=O)CO)[C@H]([C@H](O)[C@H](O)CNC(=O)Cc3ccc(Cl)cc3)O2)nn1 [Compound 262, (2R,4S,5R,6R)-6-((1R,2R)-3-(2-(4-chlorophenyl)acetamido)-1,2-dihydroxypropyl)-4-hydroxy-5-(2-hydroxyacetamido)-2-((6-((1-(2-oxo-6,9,12,15-tetraoxa-3-azaheptadecan-17-yl)-1H-1,2,3-triazol-4-yl)methoxy)hexyl)oxy)tetrahydro-2H-pyran-2-carboxylic acid] |
| < 1000 nM | 1000 to 10000 nM | CC(=O)NCCOCCOCCOCCOCCn1cc(CCCCCCO[C@]2(C(=O)O)C[C@H](O)[C@@H](NC(=O)CO)[C@H]([C@H](O)[C@H](O)CNC(=O)Cc3ccc(Cl)cc3)O2)nn1 [Compound 263, (2R,4S,5R,6R)-6-((1R,2R)-3-(2-(4-chlorophenyl)acetamido)-1,2-dihydroxypropyl)-4-hydroxy-5-(2-hydroxyacetamido)-2-((6-(1-(2-oxo-6,9,12,15-tetraoxa-3-azaheptadecan-17-yl)-1H-1,2,3-triazol-4-yl)hexyl)oxy)tetrahydro-2H-pyran-2-carboxylic acid] |
| 1000 to 10000 nM | > 10000 nM | CC(=O)NCCOCCOCCOCCOCCNC(=O)NCCCCCCO[C@]1(C(=O)O)C[C@H](O)[C@@H](NC(C)=O)[C@H]([C@H](O)[C@H](O)CNC(=O)c2cccc(Cl)c2)O1 [Compound 269, (2R,4S,5R,6R)-5-acetamido-6-((1R,2R)-3-(3-chlorobenzamido)-1,2-dihydroxypropyl)-2-((2,19-dioxo-6,9,12,15-tetraoxa-3,18,20-triazahexacosan-26-yl)oxy)-4-hydroxytetrahydro-2H-pyran-2-carboxylic acid] |
| 1000 to 10000 nM | 1000 to 10000 nM | CC(=O)NCCOCCOCCOCCOCCC(=O)NCCCCCO[C@]1(C(=O)O)C[C@H](O)[C@@H](NC(C)=O)[C@H]([C@H](O)[C@H](O)CNC(=O)Cc2ccc(Cl)cc2)O1 [Compound 249, (2R,4S,5R,6R)-5-acetamido-6-((1R,2R)-3-(2-(4-chlorophenyl)acetamido)-1,2-dihydroxypropyl)-2-((2,18-dioxo-6,9,12,15-tetraoxa-3,19-diazatetracosan-24-yl)oxy)-4-hydroxytetrahydro-2H-pyran-2-carboxylic acid] |

Source: patent publication US20250064941A1, “SIGLEC LIGANDS, CONJUGATES, AND METHODS OF USE THEREOF” (Osprey Biopharmaceuticals, Inc., priority 2023, published 2025)
